Laboratory results: patent publication US20240174618A1, “SUBSTITUTED (2-HETEROARYLOXYPHENYL)SULFONATES, SALTS THEREOF AND THEIR USE AS HERBICIDAL AGENTS” (Bayer Aktiengesellschaft, priority 2021, published 2024)

Assays:
Type in all cases: in vivo
[1] = tested on: Digitaria sanguinalis (DIGSA); test: C. Herbicidal pre-emergence efficacy, DIGSA; details: scored after about 3 weeks
Procedure, shortened: (§1)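 Pre-emergence test: formulated compounds sprayed as aqueous suspension or emulsion with 0.5% additive at 600 l/ha onto soil covering sown seeds, at rates corresponding to 320 g/ha or less. After about 3 weeks in greenhouse, efficacy scored visually as percent versus untreated controls (100% = plants dead).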

[2] = tested on: Veronica persica (VERPE); test: A. Herbicidal pre-emergence efficacy, VERPE; details: for Pre-emergence efficacy against VERPE: dosage 80 g/ha
Procedure, shortened: (§2)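 Pre-emergence soil-surface spray in sandy loam pots, WP/EC in water plus 0.5% additive, 600 L/ha. Visual % damage rating after about 3 weeks in greenhouse vs. untreated; 0% = control-like, 100% = dead plants. Rates up to 1280 g/ha.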

[3] = tested on: Amaranthus retroflexus (AMARE); test: B. Herbicidal post-emergence efficacy, AMARE
Procedure, shortened: (§3)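 Post-emergence greenhouse test: one-leaf-stage plants, compound (WP/EC, +0.5% additive, 600 L/ha water, ≤1280 g/ha) applied to green parts; % efficacy scored visually vs untreated after ~3 wk; 100% = plants died.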

[4] = tested on: Setaria viridis (SETVI); test: C. Herbicidal pre-emergence efficacy, SETVI; details: scored after about 3 weeks
Procedure, shortened: as §1

[5] = tested on: Abutilon theophrasti (ABUTH); test: C. Herbicidal pre-emergence efficacy, ABUTH; details: scored after about 3 weeks
Procedure, shortened: as §1

[6] = tested on: Pharbitis purpurea (PHBPU); test: E. Herbicidal post-emergence efficacy, PHBPU
Procedure, shortened: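 Greenhouse weeds were treated post-emergence at the one-leaf stage, 2-3 weeks after sowing in sandy loam, with WP or EC formulations sprayed as aqueous suspension/emulsion plus 0.5% additive at 600 l/ha, at 320 g/ha or less. Efficacy was rated visually after about 3 weeks versus untreated controls (100% = dead, 0% = like control).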

[7] = tested on: Veronica persica (VERPE); test: B. Herbicidal post-emergence efficacy, VERPE
Procedure, shortened: as §3

[8] = tested on: Stellaria media (STEME); test: A. Herbicidal pre-emergence efficacy, STEME
Procedure, shortened: as §2

Row | SMILES | Pre-emergence efficacy against DIGSA ([1]; 80 g/ha) | Pre-emergence efficacy against DIGSA ([1]; 320 g/ha) | Pre-emergence efficacy against VERPE in % ([2]; 320 g/ha) | Pre-emergence efficacy against VERPE in % ([2]; 1280 g/ha) | Pre-emergence efficacy against VERPE [2] | Post-emergence efficacy against AMARE ([3]; 320 g/ha) | Post-emergence efficacy against AMARE ([3]; 1280 g/ha) | Pre-emergence efficacy against SETVI ([4]; 80 g/ha) | Pre-emergence efficacy against SETVI ([4]; 320 g/ha) | Pre-emergence efficacy against ABUTH ([5]; 80 g/ha) | Pre-emergence efficacy against ABUTH ([5]; 320 g/ha) | Post-emergence efficacy against PHBPU in % ([6]; application rate 80 g/ha) | Post-emergence efficacy against PHBPU in % ([6]; application rate 320 g/ha) | Post-emergence efficacy against VERPE ([7]; 80 g/ha) | Post-emergence efficacy against VERPE ([7]; 320 g/ha) | Post-emergence efficacy against VERPE ([7]; 1280 g/ha) | Pre-emergence efficacy against STEME ([8]; dosage 80 g/ha) | Pre-emergence efficacy against STEME ([8]; dosage 320 g/ha) | Pre-emergence efficacy against STEME ([8]; dosage 1280 g/ha) | Post-emergence efficacy against AMARE ([3]; 80 g/ha)
1 | O=S(=O)(CCCC(F)(F)F)Oc1c(F)cccc1Oc1ncc(Br)cn1 [Example I-41] | 100% | 100% | 100% | 100% | 90% | 90% | 90% | 100% | 100% | 100% | 100% | 100% | 100% | 90% | 90% | 90% | 100% | 100% | 100% | 
2 | O=S(=O)(CCC(F)(F)F)Oc1c(F)cccc1Oc1ncc(Cl)cn1 [Example I-48] | 100% | 100% | 100% | 100% | 90% | 90% | 90% | 100% | 100% | 100% | 100% | 100% | 100% |  | 90% | 90% | 90% | 100% | 100% | 90%
3 | O=S(=O)(CCCC(F)(F)F)Oc1c(F)cccc1Oc1ncc(Cl)cn1 [Example I-49] | 100% | 100% | 100% | 100% | 90% | 90% | 100% | 100% | 100% | 100% | 100% | 100% | 100% |  |  | 90% | 100% | 100% | 100% | 90%
4 | C=CCCS(=O)(=O)Oc1c(F)cccc1Oc1ncc(Cl)cn1 [Example I-50] | 100% | 100% | 100% | 100% | 90% | 90% | 100% | 100% | 100% |  | 100% | 90% | 90% |  | 90% | 90% |  | 100% | 100% | 90%
5 | O=S(=O)(CC1CC(F)(F)C1)Oc1c(F)cccc1Oc1ncc(Cl)cn1 [Example I-53] | 100% | 100% | 100% | 100% | 100% | 90% | 90% | 100% | 100% | 100% | 100% | 100% | 100% | 90% | 90% | 90% | 100% | 100% | 100% | 90%
6 | O=S(=O)(CCCC(F)F)Oc1c(F)cccc1Oc1ncc(Cl)cn1 [Example I-56] | 100% | 100% | 100% | 100% |  | 90% | 90% | 100% | 100% | 100% | 100% | 100% | 100% | 90% | 90% | 90% | 100% | 100% | 100% | 90%
7 | O=S(=O)(CCCC(F)(F)C(F)(F)F)Oc1c(F)cccc1Oc1ncc(Cl)cn1 [Example I-68] | 100% | 100% | 100% | 100% |  | 100% | 100% |  | 100% | 100% | 100% | 80% | 90% | 100% | 100% | 100% |  | 100% | 100% | 100%
8 | Cc1cccc(Oc2ncc(Cl)cn2)c1OS(=O)(=O)CC1CC(F)(F)C1 [Example I-74] | 100% | 100% | 100% | 100% | 90% | 100% | 100% | 100% | 100% |  | 90% |  | 90% | 100% | 100% | 100% |  | 90% | 100% | 100%
